Residues, ends and D or L forms follow the SMILES beside them. *: point of attachment. Tos = Cc1ccc(S(=O)(=O)*)cc1
Compound	melting point [°C]
COc1ccc2c(N)c3ccccc3nc2c1	169 to 170
CC(C)OC(=O)c1ccc2c(c1)ncn2-c1cccc(N2CCN(C)CC2)c1	173 to 174
CC(C)(C)OC(=O)CC1(CC(=O)O)CCC(=O)Nc2ccccc21 (stereo not given)	117 to 119
c1ccc(-c2nsc(N3CCN(c4ccccn4)CC3)n2)cc1	137 to 138
CC(C)n1c(CC[C@@H](O)C[C@@H](O)CC(=O)OC(C)(C)C)c(-c2ccc(F)cc2)c(-c2ccccc2)c1C(N)=O	94 to 96
CC(C)(C)OC(=O)N1COC(=O)[C@@H]1CSCc1ccccc1	63 to 65
CCCc1c(OCCCCCc2ccc3cc(O)c(O)cc3c2)ccc(C(=O)O)c1O	165 to 167
CN(O)C(=O)c1ccc(CCCCc2ccccc2C(=O)O)cc1	94 to 95
CC(C)(C)c1cc(CCC(=O)NCCOC(=O)CCc2cc(C(C)(C)C)c(O)c(C(C)(C)C)c2)cc(C(C)(C)C)c1O	151 to 154
CC(C)c1cc(O)cc2nc(-c3ccc(O)cc3)oc12	200
CCCCOC1CCC(=O)N1 (stereo not given)	36 to 38
Cc1cc(O)c(SCC(C)C)c(=O)o1	106 to 108
CC(=O)Nc1cc(S(=O)(=O)c2ccccc2)ccc1NC(=O)C(C)(O)C(F)(F)F (stereo not given)	205 to 207
COc1cc2c(c(Cl)c1Cl)SCC2O (stereo not given)	122 to 124
Cc1ccc(-n2ncc(C(=O)O)c2C)cc1	203
c1cncc(NC2CCNCC2)c1	127 to 129
Brc1ccc(-c2coc3ccc(-c4ccccc4)cc23)cc1	90 to 92
O=C(O)c1cc(C(=O)O)cc(P(=O)(c2ccccc2)c2ccccc2)c1	283 to 286
COC(=O)C(C)(N)Cc1c[nH]c2ccc(Br)cc12 (racemic)	181
O=C(O)c1ccccc1-c1nc(-c2cc(C(F)(F)F)cc(C(F)(F)F)c2)no1	178 to 182
CC(C)(C)OC(=O)[C@@H](C(N)c1ccccc1)[C@@H](O)C[C@@H](Cc1ccccc1)c1ncc2n1C(O)C(C)(C)C2=O (stereo not given in full)	88 to 90
CN(C)c1ccc(C(=O)CCCC2CCN(Cc3ccccc3)CC2)cc1	83 to 85
CC(=O)N1CCC(C(=NNc2ccccc2)c2ccc(Br)cc2F)CC1	174 to 176
Cc1ccccc1-c1c(C(=O)O)c(=O)n(C)c2cc3c(cc12)CCC3	231 to 232
O=C(O)c1ccc(OCCNC(=O)C2Cc3ccccc3N2S(=O)(=O)c2ccc(-c3ccc(F)cc3Cl)cc2)cc1F (stereo not given)	98 to 102

Compound	melting point [°C]
Cn1c(-c2ccccc2Nc2cccc(C(F)(F)F)c2)n[nH]c1=O	178 to 180
CC[C@H]1C(=O)N([Si](C)(C)C(C)(C)C)[C@H]1C(=O)C=[N+]=[N-]	88 to 89
CCc1cccc(-c2nc(C3CCCCC3)n(C)n2)n1	79.2
Cn1cnc(C(=O)N2CCC(NC(=O)Nc3ccc(C(F)(F)F)cc3)CC2)c1	222 to 226
COCOc1c(Cl)ccc(-c2cc(NC(C)=O)c(Cl)c(C(=O)OC)n2)c1F	146
O=c1c2cc(O)ccc2oc2c([N+](=O)[O-])ccc(Cl)c12	290 to 292
COc1cccc(C(O)CNCCN)c1 (stereo not given)	50
OCCc1ccc2c(c1)C(O)c1ccccc1CO2 (stereo not given)	135 to 137
COC(=O)[C@H](Cc1cc(F)cc(F)c1)NC(=O)OCc1ccccc1	54
CCOC(Cc1ccc2oc(CN3c4ccccc4Sc4ccccc43)cc2c1)C(=O)O (stereo not given)	120 to 121
Cc1ccc(C)c(C2C(=O)CC(C)C2=O)c1 (stereo not given)	138 to 140
Cc1ccccc1-c1cc(N2CCOCC2)ncc1N(C)C(=O)C(C)(C)c1cc(C(F)(F)F)cc(C(F)(F)F)c1	129 to 130
CCOC(=O)c1cn2c(cnc3ccccc32)n1	184 to 187
COc1cc2cc(C3=CCN(C)CC3)oc2cc1OC	73 to 75
C#Cc1cnn2c(C(F)F)cc(-c3cccc(C(F)(F)F)c3)nc12	149
CC(O)C(C)C1=C2C(C)(C)C3CCC2(C3)C(C)(C)CC1 (stereo not given)	119 to 121
COc1cc2ncnc(N3CCC(C(O)CN4CCC(C)NS4(=O)=O)CC3)c2cc1OC (stereo not given)	189 to 193
CC1SC(=O)NN=C1c1ccc2c(c1)C(=NNC1CCCCC1)C(=O)N2 (stereo not given)	217
O[C@@H]1[C@H](O)CS[C@H]1n1cnc2c(NCc3cccc(I)c3)ncnc21	199 to 200
O=c1cc2c(n[nH]1)-c1ccc(O)cc1CC2	300
CCCCCCCc1ccc(C(=O)CCCCC(=O)O)cc1	80 to 81
CC(=O)Oc1cccc(C(Br)C(Br)c2ccccc2)c1 (stereo not given)	156 to 157
O=C1c2ccc(OC3CC3)cc2CCC1CN1CCC(O)(c2ccccc2)CC1 (stereo not given)	187 to 189
COc1cc(C)c(O)c(CCCCCCCCCCO)n1	80 to 81
Cn1ncc(C(=O)c2ccc(Cl)cc2Cl)c1Cl	81 to 83

Compound	melting point [°C]
Cn1c2cc(C=O)ccc2c2nc3ccccc3nc21	237 to 238
CC[C@H]1COC(=O)N1c1nc(-c2ccc(Br)cc2)c(F)s1	105 to 107
C#CCN(Cc1cc2c(=O)n(C)c(COS(C)(=O)=O)nc2cc1Cl)c1ccc(C(=O)OC(C)(C)C)cc1	204 to 205
CCCCOc1c(C(=O)O)n(CC(C)C)c(=O)c2ccc(OCc3ccccc3)cc12	151 to 152
CCN(CC)CC#CCCC(=O)C(O)(c1ccccc1)C1CCCC1 (stereo not given)	128 to 129
CCOc1cccc(C(c2ccccc2Cl)n2nc(C(=O)O)c3c2-c2ccc(OCc4cncnc4)cc2CC3)c1 (stereo not given)	234 to 235
CCOC(=O)c1cnc(N2CCN(Cc3ccccc3)CC2)nc1O	151 to 153
O=C(O)/C(=C/c1cnc(CCc2ccccc2)n1Cc1ccc(C(=O)O)cc1)Cc1cccs1	214
COc1cc2c3ccc(OC)c(OC)c3n(Cc3ccc(Br)cc3)c2cc1OC	143 to 144
CC(C)(C)OC(=O)N1CCC2(CC1)C(=O)Nc1ccccc12	138 to 140
O=C1N(c2ccccc2Br)Cc2cnc(Nc3ccccc3)nc2N1c1cccc2ccccc12	120 to 125
COC(=O)c1ccc2c(c1CBr)OCO2	56 to 58
CC(=O)Oc1ccc2c(c1)CCC1C3CCC(=O)C3(C)CC(=O)C21O (stereo not given)	247 to 248
OCCc1ccc2sccc2c1	56 to 57
CCN1C(=O)C(=O)C(C)=C(C#N)C1=O	159 to 160
COc1nc(C)cnc1N(C(=O)OCC(C)C)S(=O)(=O)c1cccnc1-c1ccc(I)cc1	156 to 158
O=C(O)c1cccc(-n2cnc3cc(-c4ccccc4)ccc32)c1	289 to 291
CCn1cc(C(=O)O)c(=O)c2cc(F)c(N3CC(C)(N)C3)cc21	280 to 283
CC(Oc1nn(-c2ccccc2)cc1-c1ccccc1)C(=O)O (stereo not given)	175 to 178
CCCCc1nc2cccc(C(=O)OC)c2c(=O)n1Cc1ccc(-c2ccccc2-c2nnn[nH]2)cc1	133 to 143
O=S(=O)(NCCCCn1ccnc1)c1ccc(Br)cc1	158 to 159
CCCn1nc(SCCCCC(=O)O)c(C(=O)O)c1Cc1cc2c(cc1Cl)OCO2	185
NCCCOc1ccc2cc(CC(=O)O)c(=O)n(Cc3ccccc3)c2c1	126 to 128
COc1ccc2nc(Sc3ccc4c(c3)CC[C@H]3N(C)C(=O)CC[C@]43C)sc2c1	102 to 107
CCOc1cc(C=O)ccc1OCC(=O)O	90 to 92.6

Compound	melting point [°C]
Cn1nc(-c2c(F)cccc2Cl)nc1-c1sc(Cl)c(Cl)c1Cl	129 to 130
COc1ccc(OC(=O)C2CCCc3ccc([N+](=O)[O-])cc32)cc1 (stereo not given)	109 to 110
COc1ccc2[nH]c(C(=O)NCCN(C)C)c(-c3ccccc3F)c2c1	184 to 186
Nc1cc(N2C(=O)CN(CCCF)C2=O)c(F)cc1Cl	89 to 91
CC(Oc1ccc2nc(NC(=O)NCCN3CCN(C(=O)OC(C)(C)C)CC3)sc2c1)c1c(Cl)ccc(F)c1Cl (stereo not given)	87
OC(CCCN1CC=C(c2ccc(Cl)cc2)CC1)c1ccc(Cc2ccc(Cl)cc2)cc1 (stereo not given)	104 to 105
COC(=O)c1ccc(COc2cc3c(=O)n(-c4ccc(NC(=O)OC(C)(C)C)cc4)c(C(=O)OC)c(-c4cc(OC)c(OC)c(OC)c4)c3cc2OC)cc1	197 to 199
CCN(c1ccc(C#N)cc1)S(=O)(=O)c1ccc(C)cc1	85.4 to 86.6
Cc1ccc(S(=O)(=O)N[C@@H](CCC(=O)O)C(=O)N[C@@H](Cc2ccc(O)cc2)C(=O)O)cc1 (Tos-Glu-Tyr-OH)	173 to 175
Nc1cc([N+](=O)[O-])c(N)cc1SCC(O)CO (stereo not given)	164
CNC(=O)COc1cc(C(F)(F)F)cc(C(F)(F)F)c1	98 to 99
CCC(C)C1Sc2ccccc2NC1=O (stereo not given)	99 to 100
CN(CCc1ccncc1)C(=O)CCSc1cc(C(C)(C)C)c(O)c(C(C)(C)C)c1	129 to 132
COCC(C)(C)NC(=O)C(OC)Oc1ccc2ccc(Br)cc2c1 (stereo not given)	65 to 67
COC(=O)NCCSc1cccc2nccn12	198 to 200
COC(=O)C=Cc1cc2ccccc2nc1Cl	153 to 154
C=CC(=O)NCc1ccc([N+](=O)[O-])cc1	119 to 121
COc1ccc(-c2c(Cl)c(CNC(C)=O)nc3sc4c(c23)CCN(Cc2ccccc2)C4)cc1OC	172 to 174
c1ccc(Oc2ccc(Nc3ncnc4cnc(N5CCCCC5)nc34)cc2)cc1	175
CC(C)(C)c1cc(C(=O)c2cccs2)cc2c1OCC2(C)C	103 to 105
Cc1cc(C2=NOC(c3cc(Cl)cc(Cl)c3)(C(F)(F)F)C2)ccc1Br (stereo not given)	105 to 108
CCOC(=O)C(=CNc1ccc(C2=NNC(=O)CC2)cc1)C(=O)OCC	164
Oc1cc(C(F)(F)F)nc2cccc(C(F)(F)F)c12	314 to 315
CC(C)(C)NC(=S)Nc1cc(F)cc(F)c1	140 to 142
O=C(O)c1ccccc1Sc1cccc(OCc2ccc3cc(Cl)ccc3n2)c1	177 to 179
